# Experimental data as given in US9962369B2, “Methods and compositions for transdermal delivery” (SPRAYABLE HOLDINGS, INC., priority 2014, dated 2018).
# Assay: Transdermal delivery of melatonin: plasma level of melatonin after applying composition to skin of a subject
# Conditions: human, plasma, topical, Plasma level of melatonin; for concentration at 1 h: 1 hr after transdermal administration; for concentration at 2 h: 2 hr after transdermal administration; for concentration at 4 h: 4 hr after transdermal administration; for concentration at 8 h: 8 hr after transdermal administration; for concentration at 0 h: 0 hr after transdermal administration
# [1] = 3 mg, salt of tryptophan isopropyl ester, A− = Cl^−, 247.52 mM, 0.30 mL applied
# [2] = 3 mg, salt of tryptophan isopropyl ester, A− = F^−, 262.85 mM, 0.30 mL applied
# [3] = 3 mg, salt of tryptophan isopropyl ester, A− = I^−, 187.04 mM, 0.30 mL applied
# [4] = 3 mg, salt of tryptophan isopropyl ester, A− = Lactate ion, 208.11 mM, 0.30 mL applied
# [5] = 0.3 mL of 1% melatonin in water, Tryptophan isopropyl ester hydrochloride 247.52 mM, 0.3 mL applied to skin
# [6] = 0.3 mL of 1% melatonin in water, salt of tyrosine isopropyl ester, A− = Benzoate ion, 202.65 mM, 0.30 mL applied
# [7] = 0.3 mL of 1% melatonin in water, salt of tyrosine isopropyl ester, A− = Lactate ion, 221.97 mM, 0.30 mL applied
# [8] = 2 mL of […] melatonin suspension in water, Table 21 control, A− N/A, helper esters 0 mM, 2.0 mL applied
# [9] = 2 mL of […] melatonin suspension, Helper esters: None (0 mM), 2.0 mL applied to skin
# [10] = 2-(Dibutylamino)ethyl 2-acetoxybenzoate hydrochloride 188.23 mM, 0.375 mL applied to skin
# [11] = 2-(Diethylamino)ethyl 2-acetoxybenzoate hydrochloride 221.69 mM, 0.375 mL applied to skin
# [12] = 3-(Diethylamino)propyl 2-acetoxybenzoate hydrochloride 212.24 mM, 0.375 mL applied to skin
# [13] = 6-(Dimethylamino)hexyl 2-acetoxybenzoate hydrochloride 203.56 mM, 0.375 mL applied to skin
# [14] = Proline hexyl ester hydrochloride 296.94 mM, 0.60 mL applied to skin
# [15] = Proline isopropyl ester hydrochloride 361.41 mM, 0.60 mL applied to skin
# [16] = Proline methyl ester hydrochloride 422.66 mM, 0.60 mL applied to skin
# [17] = salt of tryptophan isopropyl ester, A− = Lactate ion, 208.11 mM, 0.30 mL applied
# [18] = salt of tyrosine isopropyl ester, A− = AcO^−, 245.0 mM, 0.30 mL applied
# [19] = salt of tyrosine isopropyl ester, A− = Benzoate ion, 202.65 mM, 0.30 mL applied
# [20] = salt of tyrosine isopropyl ester, A− = Br^−, 230.16 mM, 0.30 mL applied
# [21] = salt of tyrosine isopropyl ester, A− = Citrate ion, 168.49 mM, 0.30 mL applied
# [22] = salt of tyrosine isopropyl ester, A− = Cl^−, 269.51 mM, 0.30 mL applied
# [23] = salt of tyrosine isopropyl ester, A− = F^−, 287.91 mM, 0.30 mL applied
# [24] = salt of tyrosine isopropyl ester, A− = I^−, 199.43 mM, 0.30 mL applied
smiles,measurement,setting,value
COc1ccc2[nH]cc(CCNC(C)=O)c2c1 [Melatonin],concentration at 1 h,[1],2.5 ng/mL
same,concentration at 2 h,[1],2.8 ng/mL
same,concentration at 4 h,[1],2.7 ng/mL
same,concentration at 8 h,[1],2.5 ng/mL
same,concentration at 0 h,[2],0 ng/mL
same,concentration at 1 h,[2],2.6 ng/mL
same,concentration at 2 h,[2],2.8 ng/mL
same,concentration at 4 h,[2],2.9 ng/mL
same,concentration at 8 h,[2],2.6 ng/mL
same,concentration at 0 h,[3],0 ng/mL
same,concentration at 1 h,[3],2.3 ng/mL
same,concentration at 2 h,[3],2.3 ng/mL
same,concentration at 4 h,[3],2.2 ng/mL
same,concentration at 8 h,[3],2.1 ng/mL
same,concentration at 0 h,[4],0 ng/mL
same,concentration at 1 h,[4],1.9 ng/mL
same,concentration at 0 h,[5],0 ng/mL
same,concentration at 1 h,[5],2.5 ng/mL
same,concentration at 2 h,[6],2 ng/mL
same,concentration at 4 h,[6],1.8 ng/mL
same,concentration at 8 h,[6],1.7 ng/mL
same,concentration at 0 h,[7],0 ng/mL
same,concentration at 1 h,[7],1.7 ng/mL
same,concentration at 2 h,[7],1.8 ng/mL
same,concentration at 4 h,[7],2 ng/mL
same,concentration at 8 h,[7],1.6 ng/mL
same,concentration at 0 h,[8],0 ng/mL
same,concentration at 1 h,[8],0.1 ng/mL
same,concentration at 2 h,[8],0.1 ng/mL
same,concentration at 4 h,[8],0.1 ng/mL
same,concentration at 8 h,[8],0.1 ng/mL
same,concentration at 4 h,[9],0.1 ng/mL
same,concentration at 8 h,[9],0.1 ng/mL
same,concentration at 0 h,[10],0 ng/mL
same,concentration at 1 h,[10],1.6 ng/mL
same,concentration at 2 h,[10],1.9 ng/mL
same,concentration at 4 h,[10],1.8 ng/mL
same,concentration at 8 h,[10],1.6 ng/mL
same,concentration at 0 h,[11],0 ng/mL
same,concentration at 1 h,[11],2.3 ng/mL
same,concentration at 2 h,[11],2.6 ng/mL
same,concentration at 4 h,[11],2.7 ng/mL
same,concentration at 8 h,[11],2.4 ng/mL
same,concentration at 0 h,[12],0 ng/mL
same,concentration at 1 h,[12],2.1 ng/mL
same,concentration at 2 h,[12],2.2 ng/mL
same,concentration at 4 h,[12],2.3 ng/mL
same,concentration at 8 h,[12],2.1 ng/mL
same,concentration at 0 h,[13],0 ng/mL
same,concentration at 1 h,[13],1.7 ng/mL
same,concentration at 2 h,[13],2.1 ng/mL
same,concentration at 4 h,[13],2.1 ng/mL
same,concentration at 8 h,[13],1.9 ng/mL
same,concentration at 0 h,[14],0 ng/mL
same,concentration at 1 h,[14],1.1 ng/mL
same,concentration at 2 h,[14],1.2 ng/mL
same,concentration at 4 h,[14],1.3 ng/mL
same,concentration at 8 h,[14],1.2 ng/mL
same,concentration at 0 h,[15],0 ng/mL
same,concentration at 1 h,[15],1.4 ng/mL
same,concentration at 2 h,[15],1.4 ng/mL
same,concentration at 4 h,[15],1.5 ng/mL
same,concentration at 8 h,[15],1.4 ng/mL
same,concentration at 0 h,[16],0 ng/mL
same,concentration at 1 h,[16],1.2 ng/mL
same,concentration at 2 h,[16],1.4 ng/mL
same,concentration at 4 h,[16],1.3 ng/mL
same,concentration at 8 h,[16],1.3 ng/mL
same,concentration at 2 h,[17],2 ng/mL
same,concentration at 4 h,[17],1.9 ng/mL
same,concentration at 8 h,[17],1.8 ng/mL
same,concentration at 0 h,[18],0 ng/mL
same,concentration at 1 h,[18],1.8 ng/mL
same,concentration at 2 h,[18],2 ng/mL
same,concentration at 4 h,[18],1.9 ng/mL
same,concentration at 8 h,[18],21.8 ng/mL
same,concentration at 0 h,[19],0 ng/mL
same,concentration at 1 h,[19],1.6 ng/mL
same,concentration at 0 h,[20],0 ng/mL
same,concentration at 1 h,[20],2.3 ng/mL
same,concentration at 2 h,[20],2.7 ng/mL
same,concentration at 4 h,[20],2.7 ng/mL
same,concentration at 8 h,[20],2.6 ng/mL
same,concentration at 0 h,[21],0 ng/mL
same,concentration at 1 h,[21],2 ng/mL
same,concentration at 2 h,[21],2.3 ng/mL
same,concentration at 4 h,[21],2.2 ng/mL
same,concentration at 8 h,[21],2 ng/mL
same,concentration at 0 h,[22],0 ng/mL
same,concentration at 1 h,[22],2.1 ng/mL
same,concentration at 2 h,[22],2.9 ng/mL
same,concentration at 4 h,[22],2.7 ng/mL
same,concentration at 8 h,[22],2.8 ng/mL
same,concentration at 0 h,[23],0 ng/mL
same,concentration at 1 h,[23],2.2 ng/mL
same,concentration at 2 h,[23],2.8 ng/mL
same,concentration at 4 h,[23],2.8 ng/mL
same,concentration at 8 h,[23],2.5 ng/mL
same,concentration at 0 h,[24],0 ng/mL
same,concentration at 1 h,[24],2.1 ng/mL
same,concentration at 2 h,[24],2.3 ng/mL
same,concentration at 4 h,[24],2.3 ng/mL
same,concentration at 8 h,[24],2.1 ng/mL
